Data as given in patent US8389545B2, “Quinolone M1 receptor positive allosteric modulators” (Merck, Sharp & Dohme, Corp., priority 2005, dated 2013).

Target: T1, acetylcholine muscarinic M1 receptor (Homo sapiens, UniProt P11229)
T1 construct: expressed in transfected cells; host or cells: CHOnfat cells (CHO; Geneticin selection)
T1 sequence (P11229 1-460): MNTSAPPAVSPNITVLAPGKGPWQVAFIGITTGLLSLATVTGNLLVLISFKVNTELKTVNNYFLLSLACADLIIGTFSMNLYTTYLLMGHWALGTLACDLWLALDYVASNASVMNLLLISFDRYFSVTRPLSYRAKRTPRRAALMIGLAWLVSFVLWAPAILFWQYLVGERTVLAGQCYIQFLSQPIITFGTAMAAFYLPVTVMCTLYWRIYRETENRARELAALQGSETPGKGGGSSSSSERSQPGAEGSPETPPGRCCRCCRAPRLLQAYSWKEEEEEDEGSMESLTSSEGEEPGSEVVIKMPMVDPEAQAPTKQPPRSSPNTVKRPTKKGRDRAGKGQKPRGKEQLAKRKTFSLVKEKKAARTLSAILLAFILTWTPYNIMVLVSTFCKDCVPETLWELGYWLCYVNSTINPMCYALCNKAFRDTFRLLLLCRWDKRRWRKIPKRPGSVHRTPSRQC
Assay: muscarinic FLIPR assay: intracellular calcium in CHOnfat/hM1 cells with EC20 acetylcholine
Format: cell-based
Conditions: FLIPR Ca2+, 4 min preincubation then EC20 acetylcholine (3 nM final)
Experimental: The assay studies the effect of one or several concentrations of test compounds on basal or acetylcholine-stimulated Ca^2+ levels using FLIPR.
Compounds are prepared and subjected to a preincubation period of 4 min. Thereafter, a single EC20 concentration of acetylcholine is added to each well (3 nM final). The intracellular Ca^2+ level of each sample is measured and compared to an acetylcholine control to determine any modulatory activity.
Cells: CHOnfat/hM1, hM2, hM3 or hM4 cells are plated 24 hr before the assay at a density of 18,000 cells/well (100 μL) in a 384 well plate. CHOnfat/hM1 and CHOnfat/hM3 Growth Medium: 90% DMEM (Hi Glucose); 10% HI FBS; 2 mM L-glutamine; 0.1 mM NEAA; Pen-Strep; and 1 mg/ml Geneticin, are added. For M2Gqi5CHOnfat and M4Gqi5CHOnfat cells, an additional 600 ug/ml hygromycin is added.
Equipment: 384 well plate, 120 μL addition plate; 96-well Whatman 2 ml Uniplate Incubator, 37° C., 5% CO2; Skatron EMBLA-384 Plate Washer; Multimek Pipetting System; Genesis Freedom 200 System; Mosquito System; Temo Nanolitre Pipetting System; and FLIPR^384 Fluorometric Imaging Plate Reader System are used.
Buffers. Assay Buffer: Hanks Balanced Salt Solution, with 20 mM Hepes, 2.5 mM Probenecid (Sigma P-8761) first dissolved in 1N NaOH, 1% Bovine Serum Albumin (Sigma A-9647). Dye Loading Buffer: Assay Buffer plus 1% Fetal Bovine Serum and Fluo-4AM/Pluronic Acid Mixture. 2 mM Fluo-4AM ester stock in DMSO (Molecular Probes F-14202) Concentration of 2 uM in buffer for a final concentration of 1 μM in Assay. 20% Pluronic Acid Solution stock, with concentration of 0.04% in Buffer, 0.02% in Assay.
65 μL of 2 mM Fluo-4AM are mixed with 130 μL of 20% Pluronic Acid. The resulting solution and 650 μL FBS is added to the assay buffer for a total volume of 65 mL. Positive Controls: 4-Br-A23187: 10 mM in DMSO; final concentration 10 μM. Acetylcholine: 10 mM in water, working stock at both 20 uM and 30 uM in assay buffer, final concentration of 10 μM. This is used to check the maximum stimulation of the CHOK1/hM1 cells. 20 uM (2×) acetylcholine is added in the preincubation part of the assay, and the 30 uM (3×) stock is added in the second part. (EC20) Acetylcholine: 10 mM in water, working stock of 9 nM (3×), and final concentration in assay is 3 nM. This is used after the preincubation with test compounds. Addition of the EC20 Acetylcholine to each well with a test compound will ascertain any modulator activity. 24 wells contain 3 nM Acetylcholine alone as a control.
Determining Activity of Putative Compounds: Screening Plate: Compounds are titrated in 96-well plates (columns 2-11), 100% DMSO, started at a concentration of 15 mM (150× stock concentration), and 3-fold serial dilutions using Genesis Freedom200 System. Four 96-well plates are combined into a 384-well plate using Mosquito Nanolitre Pipetting System by transferring 1 ul of serial diluted compounds to each well, and 1 mM acetylcholine (100× stock concentration) were added as a control. Using Temo, 49 μl assay buffer is added to each well of the 384-well plate right before assay.
In a 96-well Whatman 2 ml Uniplate, 9 nM Acetylcholine (3×) is pipetted into wells corresponding to the screening compounds, and into control wells. The 30 uM acetylcholine control (3×) is added into control wells, and the 3× agonist plate is transferred into a 384 well plate. Cells are washed three times with 100 μL of buffer, leaving […] of buffer in each well. Using Multimek, 30 μL of Dye Loading Buffer is added into each well and incubated at 37° C., 5% CO2 for up to one hr.
After 60 min, the cells are washed three times with 100 μL of buffer, leaving 30 μL of buffer in each well. The cell plate, screening plate, and agonist addition plates are placed on the platform in the FLIPR and the door closed. A signal test to check background fluorescence and basal fluorescence signal is performed. Laser intensity is adjusted if necessary. […]

Row | SMILES | EC50
1 | O=C(O)c1cn(Cc2ccc(O)cc2)c2ccccc2c1=O [Example 71, 1-(4-hydroxybenzyl)-4-oxo-1,4-dihydroquinoline-3-carboxylic acid] | 389 nM
2 | COc1ccc(Cn2cc(C(=O)O)c(=O)c3cccc(F)c32)cc1C(F)(F)F [Example 44, 8-fluoro-1-[4-methoxy-3-(trifluoromethyl)benzyl]-4-oxo-1,4-dihydroquinoline-3-carboxylic acid] | 793 nM
3 | O=C(O)c1cn(Cc2c(F)cccc2F)c2c(F)ccc(F)c2c1=O [Example 4, 1-(2,6-difluorobenzyl)-5,8-difluoro-4-oxo-1,4-dihydroquinoline-3-carboxylic acid] | 614 nM
4 | O=C(O)c1cn(Cc2ccc(C(F)(F)F)cc2)c2c(F)cccc2c1=O [Example 52, 8-fluoro-4-oxo-1-[4-(trifluoromethyl)benzyl]-1,4-dihydroquinoline-3-carboxylic acid] | 975 nM
5 | COc1cccc(Cn2cc(C(=O)O)c(=O)c3c(F)ccc(F)c32)c1 [Example 2, 5,8-difluoro-1-(3-methoxybenzyl)-4-oxo-1,4-dihydroquinoline-3-carboxylic acid] | 4200 nM
6 | COc1ccc(Cn2cc(C(=O)O)c(=O)c3cccc(F)c32)cc1 [Example 5, 8-fluoro-1-(4-methoxybenzyl)-4-oxo-1,4-dihydroquinoline-3-carboxylic acid] | 1150 nM
